Laboratory results taken from patent US9062048B2, “Cyclohexyl-azetidinyl antagonists of CCR2” (Janssen Pharmaceutica NV, priority 2010, dated 2015).

Molecular target: CCR2 (Homo sapiens (Human), UniProt P41597)
Experiment: MCP-1 Receptor Binding Assay in THP-1 Cells;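 further: THP-1 is a human monocytic cell line, and nonspecific binding was defined with 1 µM unlabeled MCP-1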
Settings: 0.5 nM 125I labeled MCP-1, 2 hours at 30° C., read-out: Inhibition of MCP-1 Binding IC50 MCP1B

Chain of CCR2 (P41597 whole entry): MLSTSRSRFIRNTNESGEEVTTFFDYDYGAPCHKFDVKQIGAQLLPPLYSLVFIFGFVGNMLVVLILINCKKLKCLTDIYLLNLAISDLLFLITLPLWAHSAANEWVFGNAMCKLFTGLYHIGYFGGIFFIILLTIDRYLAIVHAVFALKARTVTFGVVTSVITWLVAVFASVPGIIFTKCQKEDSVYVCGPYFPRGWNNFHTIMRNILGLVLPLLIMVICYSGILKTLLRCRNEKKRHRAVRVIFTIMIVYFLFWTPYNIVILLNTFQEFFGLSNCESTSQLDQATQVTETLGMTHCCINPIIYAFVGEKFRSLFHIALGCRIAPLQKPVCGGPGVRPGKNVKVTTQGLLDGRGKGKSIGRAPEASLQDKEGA

| SMILES | IC50 [nM] |
| --- | --- |
| O=C(CNc1ncnc2ccc(C(F)(F)F)cc12)NC1CN(C2CCC(N3CCCC3=O)CC2)C1 (stereo not shown) [Example 40, N-(1-(4-(2-oxopyrrolidin-1-yl)cyclohexyl)azetidin-3-yl)-2-((6-(trifluoromethyl)quinazolin-4-yl)amino)acetamide] | 78 |
| CC(=O)N(C[C@H]1CC[C@@H](N2CC(NC(=O)CNc3ncnc4ccc(C(F)(F)F)cc34)C2)CC1)C(C)C [Example 115] | 340 |
| O=C(CNc1ncnc2ccc(C(F)(F)F)cc12)NC1CN([C@H]2CC[C@@H](CNC(=O)C(F)(F)F)CC2)C1 [Example 112] | 81 |
| O=C(CNc1ncnc2ccc(C(F)(F)F)cc12)NC1CN([C@H]2CC[C@@H](C3CCCCC3)CC2)C1 [Example 102, N-(1-((1s,4s)-1^˜1,1′-bi(cyclohexan)1-4-yl)azetidin-3-yl)-2-((6-(trifluoromethyl)quinazolin-4-yl)amino)acetamide] | 880 |
| O=C(CNc1ncnc2ccc(C(F)(F)F)cc12)NC1CN([C@H]2CC[C@@H](C(O)C(F)(F)C(F)(F)C(F)(F)F)CC2)C1 (stereo partly drawn) [Example 35, N-(1-((1R,4s)-4-(2,2,3,3,4,4,4-heptafluoro-1-hydroxybutyl)cyclohexyl)azetidin-3-yl)-2-((6-(trifluoromethyl)quinazolin-4-yl)amino)acetamide] | 270 |
| CCC(NC(N)=O)[C@H]1CC[C@@H](N2CC(NC(=O)CNc3ncnc4ccc(C(F)(F)F)cc34)C2)CC1 (stereo partly drawn) [Example 141, 2((6-(trifluoromethyl)quinazolin-4-yl)amino)-N-(1-((1R,4s)-4-((S)-1-ureidopropyl)cyclohexyl)azetidin-3-yl)acetamide] | 250 |
| CC(C)[C@@H](O)[C@H]1CC[C@H](N2CC(NC(=O)CNc3nccc4ncc(C(F)(F)F)cc34)C2)CC1 [Example 156, N-(1-((1R,4r)-4-((R)-1-hydroxy-2-methylpropyl)cyclohexyl)azetidin-3-yl)-2-((3-(trifluoromethyl)-1,6-naphthyridin-5-yl)amino)acetamide] | 430 |
| CC(C)C(=O)N(C)[C@H]1CC[C@@H](N2CC(NC(=O)CNc3ncnc4ccc(C(F)(F)F)cc34)C2)CC1 [Example 43] | 510 |
| CC(O)[C@H]1CC[C@@H](N2CC(NC(=O)CNc3ncnc4ccc(C(F)(F)F)cc34)C2)CC1 (stereo partly drawn) [Example 97, N-(1-((1S,4s)-4-(1-hydroxyethyl)cyclohexyl)azetidin-3-yl)-2-((6-(trifluoromethyl)quinazolin-4-yl)amino)acetamide] | 89 |
| COc1ccc(CNC(=O)C2CCC(N3CC(NC(=O)CNc4ncnc5ccc(C(F)(F)F)cc45)C3)CC2)c(OC)c1 (stereo not shown) [Example 129, N-(2,4-dimethoxybenzyl)-4-(3-(2-((6-(trifluoromethyl)quinazolin-4-yl)amino)acetamido)azetidin-1-yl)cyclohexanecarboxamide] | 390 |

Compounds with a lower IC50, results first:

| IC50 [nM] | SMILES |
| --- | --- |
| 15 | O=C(CNc1ncnc2ccc(C(F)(F)F)cc12)NC1CN([C@H]2CC[C@@H](C3CCCCO3)CC2)C1 (stereo partly drawn) [Example 14, N-(1-((1S,4s)-4-(tetrahydro-2H-pyran-2-yl)cyclohexyl)azetidin-3-yl)-2-((6-(trifluoromethyl)quinazolin-4-yl)amino)acetamide] |
| 55 | O=C(CNc1ncnc2ccc(C(F)(F)F)cc12)NC1CN([C@H]2CC[C@@H](c3ccccc3CO)CC2)C1 [Example 73, N-(1-((1s,4s)-4-(2-(hydroxymethyl)phenyl)cyclohexyl)azetidin-3-yl)-2-((6-(trifluoromethyl)quinazolin-4-yl)amino)acetamide] |
| 72 | CCC(O)[C@H]1CC[C@@H](N2CC(NC(=O)CNc3nccc4ccc(C(F)(F)C(F)(F)F)cc34)C2)CC1 (stereo partly drawn) [Example 170, N-(1-((1R,4s)-4-(1-hydroxypropyl)cyclohexyl)azetidin-3-yl)-2-((7-(perfluoroethyl)isoquinolin-1-yl)amino)acetamide] |
| 13 | CCOC(=O)[C@H]1CC[C@@H](N2CC(NC(=O)CNc3ncnc4ccc(C(F)(F)F)cc34)C2)CC1 [Example 106, (1s,4s)-ethyl 4-(3-(2-((6-(trifluoromethyl)quinazolin-4-yl)amino)acetamido)azetidin-1-yl)cyclohexanecarboxylate] |
| 28 | C#CC(O)[C@H]1CC[C@@H](N2CC(NC(=O)CNc3ncnc4ccc(C(F)(F)F)cc34)C2)CC1 (stereo partly drawn) [Example 95, N-(1-((1R,4s)-4-(1-hydroxyprop-2-yn-1-yl)cyclohexyl)azetidin-3-yl)-2-((6-(trifluoromethyl)quinazolin-4-yl)amino)acetamide] |
| 22 | O=C(CNc1ncnc2ccc(C(F)(F)F)cc12)NC1CN([C@H]2CC[C@@H](C(O)C3CC3)CC2)C1 (stereo partly drawn) [Example 3, N-(1-((1S,4s)-4-(cyclopropyl(hydroxy)methyl)cyclohexyl)azetidin-3-yl)-2-((6-(trifluoromethyl)quinazolin-4-yl)amino)acetamide] |
| 33 | CC(C)(O)[C@H]1CC[C@@H](N2CC(NC(=O)CNc3ncnc4ccc(C(F)(F)F)cc34)C2)CC1 [Example 29, N-(1-((1s,4s)-4-(2-hydroxypropan-2-yl)cyclohexyl)azetidin-3-yl)-2-((6-(trifluoromethyl)quinazolin-4-yl)amino)acetamide] |
| 35 | O=C(CNc1ncnc2ccc(C(F)(F)F)cc12)NC1CN([C@H]2CC[C@@H](C3COC(=O)N3)CC2)C1 (stereo partly drawn) [Example 16, N-(1-((1R,4s)-4-(2-oxooxazolidin-4-yl)cyclohexyl)azetidin-3-yl)-2-((6-(trifluoromethyl)quinazolin-4-yl)amino)acetamide] |
| 5 | O=C(CNc1ncnc2ccc(C(F)(F)F)cc12)NC1CN([C@H]2CC[C@@H](C3CC=CCO3)CC2)C1 (stereo partly drawn) [Example 2, N-(1-((1S,4s)-4-(−3,6-dihydro-2H-pyran-2-yl)cyclohexyl)azetidin-3-yl)-2-((6-(trifluoromethyl)quinazolin-4-yl)amino)acetamide and N-(1-((1S,4r)-4-(3,6-dihydro-2H-pyran-2-yl)cyclohexyl)azetidin-3-yl)-2((6-(trifluoromethyl)quinazolin-4-yl)amino)acetamide] |
